Results published in patent publication US11590202B2, “Inhibitors of LTβR-NFκB signaling pathways for treating inflammation and cancer” (University of Maryland, Baltimore, priority 2017, dated 2023).
No end group written: not given here.

Key:
Format in all cases: cell-based, mouse
[1] = system: LTβR-mediated non-classical NFκB (NIK) signaling in LEC and SVEC4-10; assay: Immunoblot of non-classical NFκB (NIK) signaling after LTβR activation
Method: (§1) LECs were lysed in buffer containing 20 mM HEPES (pH 7.4), 150 mM NaCl, 10 mM NaF, 2 mM Na3VO4, 1 mM EDTA, 1 mM EGTA, 0.5% Triton X-100, 0.1 mM DTT, 1 mM PMSF and protease inhibitor cocktail (Roche, Indianapolis, Ind.). Protein in the cell extract was quantified using protein quantification kit (Bio-Rad, Philadelphia, Pa.) and 10 μg total protein was run on Novex™ WedgeWell™ 4-20% Tris-Glycine Mini Gels (Invitrogen) and transferred to an Immobilon-P membrane (Bio-Rad). Membranes were probed with anti-NF-κB2 p100/p52, NIK, phospho-IKKα/β(Ser176/180) (16A6), IκBα, TRAF2, TRAF3, and GAPDH antibodies. For co-IP assays, 500 μg total protein of cell extract was incubated with 1 μg of anti-mLTβR (5G11b) overnight, followed by 4 hour incubation with 25 μL protein G Agarose beads (Sigma-Aldrich). The beads were then washed with lysis buffer and boiled in 2× Laemmli sample buffer (Bio-Rad).

[2] = system: TNFR1-mediated VCAM-1 expression in LEC; assay: TNFα-stimulated VCAM-1 expression in LEC (qRT-PCR); conditions: LEC stimulated with TNFα for 1 hour
Method: (§2) One μg of total RNA extracted using Trizol reagent (Invitrogen) was reverse-transcribed into cDNA with GoScript™ Reverse Transcription System (Promega, Fitchburg, Wis.). mRNA expression levels were quantified by real-time PCR using SYBR Green Master Mix with an ABI Prism 7900HT (Applied Biosystems, Foster City, Calif.). Values for specific gene expression were normalized to house-keeping HPRT gene expression and were calculated as: 2^(Ct of HPRT-Ct specific gene). For the microarrays, total RNA of treated mLECs was extracted with RNeasy mini kit (Qiagen, Germantown, Md.) and analyzed for purity and integrity by capillary electrophoresis on an Agilent Bioanalyzer 2100 (Agilent Technologies, Inc. Santa Clara, Calif.). 100 ng/sample was subjected to amplification, followed by labeling and hybridization to Mouse Genome 430 2.0 GeneChips (Affymetrix, Santa Clara, Calif.). Sample amplification, labeling, hybridization, and detection were performed according to the manufacturer's protocols.

[3] = system: LTβR complex (TRAF2, TRAF3); assay: Co-immunoprecipitation of LTβR complex with anti-LTβR; conditions: LEC pretreated, then anti-LTβR mAb for 10 minutes
Method: as §1

[4] = system: LTβR-induced chemokines and cell adhesion molecules in LEC and SVEC4-10; assay: LTβR-induced chemokine and adhesion molecule expression (qRT-PCR, ELISA, flow cytometry, immunohistochemistry); conditions: LEC or SVEC4-10, anti-LTβR mAb (plus CL), peptides 20 μM; for LTβR-induced CCL2 expression/production: NIKi 50 μM, BAY11 25 μM
Method: LECs in PBS containing 0.2 mM calcium, 0.1 mM magnesium and 0.5% w/v BSA were treated with anti-CD16/32 (clone 93, eBioscience) to block Fc receptors, and then stained with antibodies to cell surface molecules in the same buffer. Flow cytometry antibodies used were: APC-eflour780-anti-mouse CD4 (GK1.5, eBioscience); PE-anti-mouse CD25 (PC61.5, eBioscience); APC-anti-mouse VCAM-1 (clone 647, eBioscience). For detection of LTα2β1, T cells were incubated with MOPC21 or LTβRIg at 2 μg/mL for 60 minutes at 37° C. in HBSS with 2% FBS. Cells were washed, and then stained for 45 minutes at 4° C. with BV421-rat anti-mouse IgG1 along with antibodies to other cell surface markers. Cells were then washed and fixed with 4% paraformaldehyde and run on an LSR Fortessa flow cytometer (BD Biosciences, San Jose, Calif.). Results were analyzed with software FlowJo 8.7 (Treestar).
as §2
5×10^5 LECs or SVEC4-10 cells were plated in 12-well plates and treated with 20 μM peptides for 30 minutes at 37° C. Cells were then washed and incubated with anti-LTβR agonistic mAb (2 μg/mL) for 30 minutes at 4° C., followed by washing and then cross-linking with anti-rat IgG (2 μg/mL) for 6 or 16 hours at 37° C. The supernatants were collected and stored in −80° C. Mouse CCL2 and CCL21 were measured with ELISA kits from Biolegend, Inc. and R&D Systems (Minneapolis, Minn.), respectively.
(§3) LEC monolayers were stained for surface VCAM-1, LTβR or Lyve-1 with rat anti-mouse VCAM-1 (Clone 429, eBioscience), rat anti-mouse LTβR (Clone 3C8, eBioscience) or rabbit anti-mouse Lyve-1 (70R-LR003, Fitzgerald, Acton, Mass.), then were fixed for 20 minutes at 4° C. with 4% (w/v) paraformaldehyde (Affymetrix), permeabilized with PBS 0.2% (v/v) Triton X-100 (Sigma-Aldrich), and treated with 2% donkey serum for 10 minutes then incubated with rabbit anti-mouse CXCL12 (eBioscience), goat-anti-mouse CCL21 (Clone AF457, R&D System), or anti-NIK mouse monoclonal antibody (Clone A-12, Santa Cruz Biotechnology) overnight at 4° C. The primary antibodies were detected with Alexa Fluor […], 647 (Cy5), or 546 (Cy3)-conjugated donkey anti-goat, donkey anti-rabbit, or donkey anti-rat secondary antibodies (Jackson ImmunoResearch, West Grove, Pa.) for 1 hour at 4° C. Transwell membranes were transferred onto glass slides and visualized by fluorescent microscopy (Zeiss LSM 510 Meta, and LSMS Duo) with a ×60 or ×20 objective. Images were analyzed with Volocity version 6.3 software.

[5] = system: LTβR-NIK signaling in LEC and SVEC4-10; assay: Immunohistochemistry of LTβR, NIK and RelB in LEC and SVEC4-10; conditions: anti-LTβR for 6 hours
Method: as §3

LEC = assay: MTT viability assay; conditions: 20 μM peptides, without or with anti-LTβR mAb
Method: LECs were plated into 24-well tissue culture plates, incubated overnight, and treated with 20 μM peptides with or without agonist anti-LTβR (2 μg/mL) for 4 hours, followed by 3 hour incubation with 0.5 mg/mL MTT (3-(4, 5-Dimethylthiazol-2-yl)-2, 5 diphenyl tetrazolium bromide) (Sigma-Aldrich). 50 μL DMSO was added to cells before reading OD at 540 nm.

[6] = system: classical NFκB signaling in LEC; assay: Immunoblot of classical NFκB signaling (IKKα/β phosphorylation, IκBα degradation); conditions: 2 μg/mL anti-LTβR mAb or 20 ng/mL TNFα
Method: as §1

[7] = pretreated with peptides or inhibitors, then anti-LTβR for 6 hours

Row | Molecule | TRAF2 recruitment to the LTβR complex [3] | TRAF3 recruitment to the LTβR complex [3] | TRAF2 degradation [1, 7] | LTβR-induced VCAM-1 expression [4] | LTβR-induced CCL2 expression/production [4] | NIK expression and co-localization with LTβR [5] | LEC viability (MTT) (LEC) | further results
1 | CN[C@@H](C)C(=O)N[C@H]1CN(C(=O)CC(C)C)CC[C@H]2CC[C@@H](C(=O)NC(c3ccccc3)c3ccccc3)N2C1=O [AT406] |  |  |  |  |  |  |  | LTβR-mediated NIK accumulation and p100 processing ([1]; LEC and SVEC4-10, anti-LTβR mAb, 25 μM AT406): promoted more LTβR-mediated NIK accumulation and p100 processing
2 | CC(C)(C)c1ccc(S(=O)(=O)/C=C/C#N)cc1 [BAY11-7085] | not BAY11-7085 was sufficient to inhibit | not BAY11-7085 was sufficient to inhibit | not BAY11-7085 also prevented | suppressed | suppressed | neither ciLT, BAY11-7085, nor NIKi affected |  | TNFR1-mediated VCAM-1 expression [2]: significantly inhibited
3 | O=C1Cc2ccccc2C(=O)N1 [NIKi, 4H-isoquinoline-1,3-dione] | blocked | blocked | inhibited TRAF2 degradation | did not affect | partial inhibitory effect | neither ciLT, BAY11-7085, nor NIKi affected |  | p100 processing to p52 [1, 7]: prevented; LTβR-induced CCL21 transcription and production [4]: inhibited
4 | RQIKIWFQNRRMKWKKPEEGAPGP [ciLT] |  |  |  |  |  |  | did not affect | 
5 | RQIKIWFQNRRMKWKKTGNIYIYNGPVL [nciLT] |  |  |  |  |  |  | did not affect | 
6 | TNFα |  |  |  |  |  |  |  | early classical NFκB activation (IKKα/β phosphorylation, IκBα degradation) [6]: induced strong IKKα/β phosphorylation and IκBα degradation
